# From patent US7115658B2 (priority 2002, dated 2006)
# Molecular target: T1, Recombinant HCV polymerase (Hepatitis C virus genotype 1b, UniProt P26663)
# T1 construct: 2.5 pmoles (0.15 μg) HCV polymerase protein
# Assay: HCV Polymerase Inhibition Assay
# Assay type: biochemical
# Conditions: primer/template-directed transcription, 30 minutes at 30° C.; category symbol
# How it was run: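 Recombinant genotype 1b polymerase (2.5 pmol) extended biotin-dG12 on poly(rC)300 with 1 μM GTP plus α-32P-GTP, pH 7.2, 30 min at 30 °C, 1% DMSO final; DE-filter-bound product counted. IC50 fitted from triplicate cpm, refitted with enzyme-concentration (30 nM) tight-binding equation when below 200 nM.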
# T1 sequence (P26663 2420-3010): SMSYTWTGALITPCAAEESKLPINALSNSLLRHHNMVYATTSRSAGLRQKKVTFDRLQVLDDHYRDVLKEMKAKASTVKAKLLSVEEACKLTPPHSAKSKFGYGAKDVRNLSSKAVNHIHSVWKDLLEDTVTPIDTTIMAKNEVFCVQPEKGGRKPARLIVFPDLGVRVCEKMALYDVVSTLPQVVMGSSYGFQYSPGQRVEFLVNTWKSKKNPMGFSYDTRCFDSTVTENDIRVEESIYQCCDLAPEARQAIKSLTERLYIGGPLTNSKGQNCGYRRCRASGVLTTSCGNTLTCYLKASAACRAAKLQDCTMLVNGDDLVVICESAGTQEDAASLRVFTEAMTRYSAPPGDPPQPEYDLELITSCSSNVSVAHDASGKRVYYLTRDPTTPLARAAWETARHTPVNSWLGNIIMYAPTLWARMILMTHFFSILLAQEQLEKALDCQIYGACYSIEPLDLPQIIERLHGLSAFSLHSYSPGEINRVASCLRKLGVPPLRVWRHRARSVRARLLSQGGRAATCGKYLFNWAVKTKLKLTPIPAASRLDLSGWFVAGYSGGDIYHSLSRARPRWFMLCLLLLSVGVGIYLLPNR
row,Compound,IC50
1,"Cc1noc(COc2ccc(CCC3(C4CCCC4)CC(O)=CC(=O)O3)cc2)n1 (stereo not drawn) [Example 48, 6-Cyclopentyl-6-(2-{4-[(3-methyl-1,2,4-oxadiazol-5-yl)methoxy]phenyl}ethyl)4-hydroxy-5,6-dihydro-2H-pyran-2-one]",10 to 50 µM
2,"O=C1CC(=O)OC(CCc2ccccc2CO)(C2CCCC2)C1 (stereo not drawn) [Example 6, 6-Cyclopentyl-6-[2-(2-hydroxymethylphenyl)ethyl]dihydropyran-2,4-dione]",10 to 50 µM
3,"O=C1CC(=O)OC(CCc2ccc(F)c(Cl)c2)(C2CCCC2)C1 (stereo not drawn) [Example 31, 6-[2-(3-Chloro-4-fluoro-phenyl)-ethyl]-6-cyclopentyl-dihydro-pyran-2,4-dione]",1 to 10 µM
4,"O=C1C=C(O)CC(CC2CCc3ccccc32)(C2CCCC2)O1 (mixture of isomers) [Example 15, 6-Cyclopentyl-4-hydroxy-6-indan-1-ylmethyl-5,6-dihydro-pyran-2-one]",> 50 µM
5,"COc1c(F)cc(CCC2(C3CCCC3)CC(=O)CC(=O)O2)cc1F (stereo not drawn) [Example 43, 6-Cyclopentyl-6-[2-(3,5-difluoro-4-methoxy-phenyl)-ethyl]-dihydro-pyran-2,4-dione]",1 to 10 µM
6,"COc1ccc(CCC2(C3CCCC3)CC(O)=C(Sc3nc4ccccc4o3)C(=O)O2)cc1Cl (stereo not drawn) [Example 127, 3-(Benzooxazol-2-ylsulfanyl)-6-[2-(3-chloro-4-methoxy-phenyl)-ethyl]-6-cyclopentyl-4-hydroxy-5,6-dihydro-pyran-2-one]",< 1 µM
7,"O=C1OC(CCc2ccc(OCc3ccccc3)cc2)(C2CCCC2)CC(O)=C1Sc1cccc2ccccc12 (stereo not drawn) [Example 86, 6-[2-(4-Benzyloxyphenyl)ethyl]-6-cyclopentyl-4-hydroxy-3-(napthalen-1-ylsulfanyl)-5,6-dihydropyran-2-one]",1 to 10 µM
8,"O=C1OC(CCc2ccc(O)cc2)(C2CCCC2)CC(O)=C1SCc1ccccc1 (stereo not drawn) [Example 84, 3-Benzylsulfanyl-6-cyclopentyl-4-hydroxy-6-[2-(4-hydroxyphenyl)ethyl]-5,6-dihydropyran-2-one]",1 to 10 µM
9,"COc1ccc(CCC2(C3CCCC3)CC(O)=C(Sc3nnnn3-c3ccc(O)cc3)C(=O)O2)cc1 (stereo not drawn) [Example 114, 6-Cyclopentyl-4-hydroxy-3-([1-(4-hydroxyphenyl)-1H-tetraazol-5-yl]thio)-6-[2-(4-methoxyphenyl)ethyl]-5,6-dihydro-2H-pyran-2-one]",< 1 µM
10,"CCOc1ccc(CCC2(C3CCCC3)CC(=O)CC(=O)O2)cc1F (stereo not drawn) [Example 71, 6-Cyclopentyl-6-[2-(4-ethoxy-3-fluoro-phenyl)-ethyl]-dihydro-pyran-2,4-dione]",< 1 µM
11,"CC1(c2ccc(CCC3(C4CCCC4)CC(=O)CC(=O)O3)cc2Cl)OCCO1 (stereo not drawn) [Example 62, 6-{2-[3-Chloro-4-(2-methyl-[1,3]dioxolan-2-yl)-phenyl]-ethyl}-6-cyclopentyl-dihydro-pyran-2,4-dione]",< 1 µM
12,"COc1cc(OC)c(CCC2(C3CCCC3)CC(O)=C(Sc3nnc(-c4cccs4)n3C)C(=O)O2)cc1Cl (stereo not drawn) [Example 96, 6-[2-(5-chloro-2,4-dimethoxyphenyl)ethyl]-6-cyclopentyl-4-hydroxy-3-[(4-methyl-5-thien-2-yl 4H-1,2,4-triazol-3-yl)thio]-5,6-dihydro-2-one]",< 1 µM
13,"Cc1cc(SC2=C(O)CC(CCc3ccc(O)cc3)(c3ccccc3)OC2=O)c(C(C)(C)C)cc1CO (stereo not drawn) [Example 154, 3-(2-tert-butyl-4-hydroxymethyl-5-methyl-phenylsulfanyl)-4-hydroxy-6-[2-(4-hydroxy-phenyl)-ethyl]-6-phenyl-5,6-dihydro-pyran-2-one]",> 50 µM
14,"CC(C)Oc1cccc(CCC2(C3CCCC3)CC(=O)CC(=O)O2)c1 (stereo not drawn) [Example 33, 6-Cyclopentyl-6-[2-(3-isopropoxy-phenyl)-ethyl]-dihydro-pyran-2,4-dione]",1 to 10 µM
15,"O=C1CC(=O)OC(CCc2ccc(N3CCCC3=O)cc2)(C2CCCC2)C1 (stereo not drawn) [Example 79, 6-Cyclopentyl-6-{2-[4-(2-oxo-pyrrolidin-1-yl)-phenyl]-ethyl}-dihydro-pyran-2,4-dione]",1 to 10 µM
16,"COc1ccc(CCC2(C3CCCC3)CC(O)=C(Sc3nc4ccccc4[nH]3)C(=O)O2)cc1Cl (stereo not drawn) [Example 128, 3-(1H-Benzoimidazol-2-ylsulfanyl)-6-[2-(3-chloro-4-methoxy-phenyl)-ethyl]-6-cyclopentyl-4-hydroxy-5,6-dihydro-pyran-2-one]",< 1 µM
17,"O=C1CC(=O)OC(CCc2ccc(C(=O)N3CCC(O)CC3)cc2)(C2CCCC2)C1 (stereo not drawn) [Example 67, 6-Cyclopentyl-6-(2-[4-(4-hydroxy-piperidine-1-carbonyl)-phenyl]-ethyl}-dihydro-pyran-2,4-dione]",> 50 µM
18,"Cc1cccc(CCC2(C3CCCC3)CC(=O)CC(=O)O2)c1 (stereo not drawn) [Example 36, 6-Cyclopentyl-6-(2-m-tolyl-ethyl)-dihydro-pyran-2,4-dione]",10 to 50 µM

row,Compound,IC50
1,"COc1cccc(CC2C(=O)CC(CCc3ccc(OC)cc3OC)(C3CCCC3)OC2=O)c1 (stereo not drawn) [Example 162, 6-Cyclopentyl-6-[2-(2,4-dimethoxy-phenyl)-ethyl]-3-(3-methoxy-benzyl)-dihydro-pyran-2,4-dione]",1 to 10 µM
2,"C=CCOCCC1(C2CCCC2)CC(O)=C(Sc2nc3nc(C)cc(C)n3n2)C(=O)O1 (stereo not drawn) [Example 104, 6-(2-Allyloxy-ethyl)-6-cyclopentyl-3-(5,7-dimethyl-[1,2,4]triazolo[1,5-a]pyrimidin-2-ylsulfanyl)-4-hydroxy-5,6-dihydro-pyran-2-one]",10 to 50 µM
3,"COc1ccc(CCC2(C3CCCC3)CC(=O)C(C(C)=O)C(=O)O2)cc1 (stereo not drawn) [Example 168, 3-Acetyl-6-cyclopentyl-6-[2-(4-methoxy-phenyl)-ethyl]-dihydro-pyran-2,4-dione]",10 to 50 µM
4,"O=C1CC(=O)OC(CCc2ccc3c(c2)OCCO3)(C2CCCC2)C1 (stereo not drawn) [Example 32, 6-Cyclopentyl-6-[2-(2,3-dihydro-benzo[1,4]dioxin-6-yl)-ethyl]-dihydro-pyran-2,4-dione]",1 to 10 µM
5,"COc1ccc(CCC2(C3CCCC3)CC(O)=C(Sc3ccccc3)C(=O)O2)cc1Cl (stereo not drawn) [Example 102, 6-[2-(3-Chloro-4-methoxy-phenyl)-ethyl]-6-cyclopentyl-4-hydroxy-3-phenylsulfanyl-5,6-dihydro-pyran-2-one]",< 1 µM
6,"Cc1cc(SC2=C(O)CC(CCc3ccc(O)cc3)(C3CCCCC3)OC2=O)c(C(C)(C)C)cc1OS(=O)(=O)c1ccc(C#N)cc1 (stereo not drawn) [Example 139, 4-Cyano-benzenesulfonic acid 5-tert-butyl-4-{6-cyclohexyl-4-hydroxy-6-[2-(4-hydroxy-phenyl)-ethyl]-2-oxo-5,6-dihydro-2H-pyran-3-ylsulfanyl}-2-methyl-phenyl ester]",1 to 10 µM
7,"O=C1CC(=O)OC(CCc2ccc(O)cc2)(C2CCCC2)C1 (stereo not drawn) [Example 1, 6-Cyclopentyl-6-[2-(4-hydroxyphenyl)ethyl]dihydropyran-2,4-dione]",10 to 50 µM
8,"CC(C)COc1ccc(CCC2(C3CCCC3)CC(=O)CC(=O)O2)cc1F (stereo not drawn) [Example 70, 6-Cyclopentyl-6-[2-(3-fluoro-4-isobutoxy-phenyl)-ethyl]-dihydro-pyran-2,4-dione]",1 to 10 µM
9,"COc1cc(OC)c(CCC2(C3CCCC3)CC(O)=C(Sc3nc4nc(C)cc(C)n4n3)C(=O)O2)cc1Cl (stereo not drawn) [Example 91, 6-[2-(5-Chloro-2,4-dimethoxyphenyl)ethyl]-6-cyclopentyl-3-[(5,7-dimethyl[1,2,4]triazolo[1,5-a]pyrimidin-2-yl)thio]-4-hydroxy-5,6-dihydro-2H-pyran-2-one]",< 1 µM
10,"O=C1CC(=O)OC(CCc2ccc(OC3CCCC3)c(F)c2)(C2CCCC2)C1 (stereo not drawn) [Example 77, 6-Cyclopentyl-6-[2-(4-cyclopentyloxy-3-fluoro-phenyl)-ethyl]-dihydro-pyran-2,4-dione]",1 to 10 µM
11,"COc1cc(OC)c(CCC2(C3CCCC3)CC(O)=C(Sc3nc(O)c4cc[nH]c4n3)C(=O)O2)cc1Cl (stereo not drawn) [Example 105, 6-[2-(5-Chloro-2,4-dimethoxyphenyl)ethyl]-6-cyclopentyl-4-hydroxy-3-[(4-hydroxy-7H-pyrrolo[2,3-d]pyrimidin-2-yl)thio]-5,6-dihydro-2H-pyran-2-one]",< 1 µM
12,"COC1=CC(=O)OC(CCc2cccc(C(C)C)c2)(C2CCCC2)C1 (stereo not drawn) [Example 34, 6-Cyclopentyl-6-[2-(3-isopropyl)-ethyl]-4-methyoxy-5,6-dihydro-pyran-2-one]",10 to 50 µM
13,"CC(C)Oc1ccc(CCC2(C3CCCC3)CC(=O)CC(=O)O2)cc1F (stereo not drawn) [Example 73, 6-Cyclopentyl-6-[2-(3-fluoro-4-isopropoxy-phenyl)-ethyl]-dihydro-pyran-2,4-dione]",< 1 µM
14,"O=C1CC(=O)OC(CCc2ccc(F)c(F)c2)(C2CCCC2)C1 (stereo not drawn) [Example 54, 6-Cyclopentyl-6-[2-(3,4-difluoro-phenyl)-ethyl]-dihydro-pyran-2,4-dione]",10 to 50 µM
15,"COc1ccc(CCC2(C3CCCC3)CC3=C(CCCO3)C(=O)O2)c(OC)c1 (stereo not drawn) [Example 103, 7-Cyclopentyl-7-[2-(2,4-dimethoxyphenyl)ethyl]-3,4,7,8-tetrahydro-2H,5H-pyrano[4,3-b]pyran-5-one]",> 50 µM
16,"COc1ccc(CCC2(C3CCCC3)CC(O)=C(Sc3nc[nH]n3)C(=O)O2)cc1Cl (stereo not drawn) [Example 124, 6-[2-(3-Chloro-4-methoxy-phenyl)-ethyl]-6-cyclopentyl-4-hydroxy-3-(1 H[1,2,4]triazol-3-ylsulfanyl)-5,6-dihydro-pyran-2-one]",< 1 µM
17,"COc1ccc(CCC2(C3CCCC3)CC(O)=C(Sc3nc(O)c4cc[nH]c4n3)C(=O)O2)cc1 (stereo not drawn) [Example 113, 6-Cyclopentyl-4-hydroxy-3-[(4-hydroxy-7H-pyrrolo[2,3-d]pyrimidin-2-yl)thio]-6-[2-(4-methoxyphenyl)ethyl]-5,6-dihydro-2H-pyran-2-one]",< 1 µM
18,"CCOc1ccc(CCC2(C3CCCC3)CC(=O)CC(=O)O2)cc1 (stereo not drawn) [Example 25, 6-Cyclopentyl-6-[2-(4-ethoxy-phenyl)-ethyl]-dihydro-pyran-2,4-dione]",1 to 10 µM
